Legend:
[1] = tested on: HTT mRNA; assay: Splicing RT-qPCR assay, HTT canonical (CJ) and alternative (AJ) junction mRNA; assay type: cell-based; settings: Homo sapiens, A673 or K562 cells, 24 hours; for IC50: decrease in canonical junction mRNA; for AC50: increase in alternative junction mRNA
Protocol: (§1) Compounds described herein were used to modulate RNA transcript abundance in cells. The expression of a target mRNA was measured by detecting the formation of an exon-exon junction in the canonical transcript (CJ). A compound mediated exon-inclusion event was detected by observing an increase in formation of a new junction with an alternative exon (AJ). Real-time qPCR assays were used to detect these splicing switches and interrogate the potency of various compounds towards different target genes. A high-throughput real time quantitative PCR (RT-qPCR) assay was developed to measure these two isoforms of the mRNA (CJ and AJ) for exemplary genes, such as HTT, SMN2, and MYB, together with a control housekeeping gene, GAPDH or GUSB or PPIA, used for normalization. Briefly, the A673 or K562 cell line was treated with various compounds described herein (e.g., compounds of Formula (I), (I), or (III)). After treatment, the levels of the HTT, MYB, or SMN2 mRNA targets were determined from each sample of cell lysate by cDNA synthesis followed by qPCR.
(§2) • Cells-to-CT 1-step kit: ThermoFisher A25602, Cells-to-CT lysis reagent: ThermoFisher 4391851C, TaqMan™ Fast Virus 1-Step Master Mix: ThermoFisher 4444436 • GAPDH: VIC-PL, ThermoFisher 4326317E (Assay: Hs99999905_ml)—used for K562/suspension cell lines • GUSB: VIC-PL, ThermoFisher 4326320E (Assay: Hs99999908_ml)—used for K562/suspension cell lines • PPIA: VIC-PL, ThermoFisher 4326316E (Assay: Hs99999904_ml)—used for A673/adherent cell lines
(§3) The A673 cell line was cultured in DMEM with 10% FBS. Cells were diluted with full growth media and plated in a 96-well plate (15,000 cells in 100 ul media per well). The plate was incubated at 37° C. with 5% CO2 for 24 hours to allow cells to adhere. An 11-point 3-fold serial dilution of the compounds was made in DMSO then diluted in media in an intermediate plate. Compounds were transferred from the intermediate plate to the cell plate with the top dose at a final concentration of 10 uM in the well. Final DMSO concentration was kept at or below 0.25%. The cell plate was returned to the incubator at 37° C. with 5% CO2 for an additional 24 hours.
(§4) The K562 cell line was cultured in IMDM with 10% FBS. For K562, cells were diluted with full growth media and plated in either a 96-well plate (50,000 cells in 50 uL media per well) or a 384-well plate (8,000-40,000 cells in 45 uL media per well). An 11-point 3-fold serial dilution of the compounds were made in DMSO then diluted in media in an intermediate plate. Compound was transferred from the intermediate plate to the cell plate with the top dose at a final concentration of 10 uM in the well. Final DMSO concentration was kept at or below 0.25%. Final volume was 100 uL for 96-well plate and 50 uL for 384-well plate. The cell plate was then placed in an incubator at 37° C. with 5% CO2 for 24 hours.
(§5) The cells were then gently washed with 50 uL-100 uL cold PBS before proceeding to addition of lysis buffer. 30 uL-50 uL of room temperature lysis buffer with DNAse I (and optionally RNAsin) was added to each well. Cells were shaken/mixed thoroughly at room temperature for 5-10 minutes for lysis to take place and then 3 uL-5 uL of room temperature stop solution was added and wells were shaken/mixed again. After 2-5 minutes, the cell lysate plate was transferred to ice for RT-qPCR reaction setup. The lysates could also be frozen at −80° C. for later use.
(§6) In some cases, a direct lysis buffer was used. An appropriate volume of 3×lysis buffer (10 mM Tris, 150 mM NaCl, 1.5%-2.5% Igepal and 0.1-1 U/uL RNAsin, pH 7.4) was directly added to either K562 or A673 cells in media and mixed by pipetting 3 times. The plates were then incubated at room temperature with shaking/rocking for 20-50 minutes to allow for lysis to take place. After this time, the cell lysate plate was transferred to ice to set up for the RT-qPCR reactions. The lysates could also be frozen at −80° C. for later use. […]

[2] = tested on: MYB mRNA; assay: Splicing RT-qPCR assay, MYB canonical (CJ) and alternative (AJ) junction mRNA; assay type: cell-based; settings: Homo sapiens, A673 or K562 cells, 24 hours; for IC50: decrease in canonical junction mRNA; for AC50: increase in alternative junction mRNA
Protocol: as §1, §2, §3, §4, §5, §6

[3] = tested on: HTT mRNA; assay: Gene panel canonical junction qPCR assay, HTT CJ mRNA decrease; assay type: cell-based, human; settings: Homo sapiens, canonical junction qPCR, read-out: HTT IC50 (decrease in CJ mRNA levels)
Protocol: as §1
(§7) The data analysis was performed by first determining the ΔCt vs the housekeeper gene. This ΔCt was then normalized against the DMSO control (ΔΔCt) and converted to RQ (relative quantification) using the 2^(−ΔΔCt) equation. The RQ were then converted to a percentage response by arbitrarily setting an assay window of 3.5 and 4.0 ΔCt for HTT-CJ and MYB-CJ respectively and an assay window of 9 and 3 ΔCt for HTT-AJ and MYB-AJ in 96 well format (50,000 K562 cells/well and 15,000 A673 cells per well) and an assay window of 3 and 4 ΔCt for HTT-CJ and MYB-CJ respectively and an assay window of 5 and 3 ΔCt for HTT-AJ and MYB-AJ respectively in 384 well format (8,000 K562 cells/well example). […] The percentage response was then fitted to the 4 parametric logistic equation to evaluate the concentration dependence of compound treatment. The increase in AJ mRNA is reported as AC50 (compound concentration having […] in AJ increase) while the decrease in CJ mRNA levels is reported as IC50 (compound concentration having 50) response in CJ decrease).
(§8) Additional studies were carried out for a larger panel of genes using the protocol provided above. The junction between flanking upstream and downstream exons was used to design canonical junction qPCR assays. At least one of the forward primer, reverse primer or the CY5-labeled 5′ nuclease probe (with 3′ quencher such as ZEN/Iowa Black FQ) was designed to overlap with the exon junction to capture the CJ mRNA transcript. BLAST was used to confirm the specificity of the probeset and parameters such as melting temperature, GC content, amplicon size, and primer dimer formation are considered during their design. Data for the decrease in CJ mRNA levels for four exemplary genes (HTT, SMN2, MYB, and Target C) analyzed in this panel are reported as IC50 (compound concentration having […] in CJ decrease).
(§9) A summary of the results from the panel is illustrated in Tables 5A and 51B, wherein “A” represents an IC50 of less than 100 nM; “B” represents an IC50 of between 100 nM and 1 μM; and “C” represents an IC50 of between 1 μM and 10 μM; and “D” represents an IC50 of greater than 10 μM.

[4] = tested on: MYB mRNA; assay: Gene panel canonical junction qPCR assay, MYB CJ mRNA decrease; assay type: cell-based, human; settings: Homo sapiens, canonical junction qPCR, read-out: MYB IC50 (decrease in CJ mRNA levels)
Protocol: as §1, §7, §8, §9

[5] = tested on: SMN2 mRNA; assay: Gene panel canonical junction qPCR assay, SMN2 CJ mRNA decrease; assay type: cell-based, human; settings: Homo sapiens, canonical junction qPCR, read-out: SMN2 IC50 (decrease in CJ mRNA levels)
Protocol: as §1, §7, §8, §9

[6] = tested on: Target C mRNA; assay: Gene panel canonical junction qPCR assay, Target C CJ mRNA decrease; assay type: cell-based; settings: Homo sapiens, canonical junction qPCR, read-out: Target C IC50 (decrease in CJ mRNA levels)
Protocol: as §1, §7, §8, §9

[7] = tested on: HiBiT-tagged MYB protein; assay: HiBiT protein abundance assay, MYB (K562 HiBiT knock-in cells); assay type: cell-based, human; settings: 24 hours
Protocol: (§10) Compounds described herein were used to screen for effects on quantitative protein abundance using a HiBit assay system (Promega). Quantitative protein abundance was determined by measuring the protein levels of HiBit-tagged protein targets expressed in cell culture via luminescence using the Nano-Glo HiBiT Lytic Detection System, which uses a split complementation assay format to reconstitute NanoBiT enzyme to generate a luminescent signal. A protein abundance assay was developed such that endogenous protein targets could be modified with the HiBiT peptide tag and their abundance could be assessed after compound treatment. Briefly, K562 cell lines containing a HiBiT-modification were treated with various compounds described herein (e.g., compounds of Formulas (I), (II), or (III)). After treatment for 24 hours, the protein abundance of a specific target was determined by measuring luminescence.
(§11) • Promega Nano-Glo HiBiT Lytic Detection System (cat #N3030) • Corning 384-well TC-treated microplates (cat #3570) • Synthego Engineered Cells Knock-In Clones
(§12) Cells were maintained in IMDM with 10% FBS. Before the assay, cells were diluted with […] growth media (IMDM+1% FBS media) and were seeded in a 384-well plate at a density of 10000 cells/well (for each cell line listed in Table 6). Each compound was prepared as a 10-point 3-fold serial dilution in DMSO with the top dose at a final concentration of 10 μM in the well. Unmodified K562 cells were added at the previously specified density with DMSO to serve as an assay baseline and positive control (PC) and DMSO only with the respective modified cell lines was added to the negative control (NC) columns. Final DMSO concentration was kept at or below 0.25%. Treated cell plates were placed in an incubator at 37° C. with 5% CO2 for 24 hours. After 24 hours, 25 μL of Complete HiBit Lytic reagent was added to each well at room temperature (e.g. one plate requiring 10 mL Lytic Buffer, 100 μL LgBiT Protein, 200 μL Lytic Substrate), shaken for 5 minutes at 600 RPM, then left to sit for 10 minutes for signal to stabilize before reading on a Spark Cyto plate reader (Tecan) with a 500 ms measurement time.
(§13) To determine compound effects on protein abundance of each target in Table 6, the percent response for each respective cell line was calculated at each compound concentration as follows:
(§14) For the normalized response at each concentration, a four-parameter logistical regression was fit to the data and the response was interpolated at the 50% value to determine a concentration for protein abundance at 50% (IC50) the untreated control.

[8] = tested on: HiBiT-tagged HTT protein; assay: HiBiT protein abundance assay, HTT (K562 HiBiT knock-in cells); assay type: cell-based, human; settings: 24 hours
Protocol: as §10, §11, §12, §13, §14

[9] = tested on: Target C; assay: HiBiT protein abundance assay, Target C (K562 HiBiT knock-in cells); assay type: cell-based, human; settings: 24 hours
Protocol: as §11, §12, §13, §14

Row | Compound | IC50 [1] [nM] | IC50 [2] [nM] | IC50 [3] [nM] | IC50 [4] [nM] | IC50 [5] [nM] | IC50 [6] [nM] | IC50 [7] [nM] | IC50 [8] [nM] | IC50 [9] [nM] | AC50 [1] [nM] | AC50 [2] [nM]
1 | COc1ncc2c(N3C[C@H](C)N[C@@H](C)C3)ccc(C(=O)Nc3cc(F)c4nc(C)cn4c3)c2n1 [Compound 386] | 100 to 1000 | < 100 | 100 to 1000 | < 100 | < 100 | 100 to 1000 | – | – | – | 100 to 1000 | < 100
2 | CCc1cc2c(N3CCNCC3)ccc(C(=O)Nc3cc(F)c4nc(C)cn4c3)c2nn1 [Compound 185, 3-ethyl-N-{8-fluoro-2-methylimidazo[1,2-a]pyridin-6-yl}-5-(piperazin-1-yl)cinnoline-8-carboxamide] | > 10000 | 100 to 1000 | > 10000 | 100 to 1000 | < 100 | > 10000 | – | – | – | > 10000 | 100 to 1000
3 | Cc1cn2cc(NC(=O)c3c(F)cc(N4CCNCC4)c4ccnnc34)cc(F)c2n1 [Compound 350] | > 10000 | 1000 to 10000 | > 10000 | 1000 to 10000 | 100 to 1000 | > 10000 | – | – | – | > 10000 | 1000 to 10000
4 | Cc1cn2cc(NC(=O)c3ccc(N4C[C@@H](C)N[C@@H](C(C)C)C4)c4nccnc34)cc(F)c2n1 [Compound 264, N-{8-fluoro-2-methylimidazo[1,2-a]pyridin-6-yl}-8-[(3S,5R)-3-isopropyl-5-methylpiperazin-1-yl]quinoxaline-5-carboxamide 2,2,2-trifluoroacetate] | > 10000 | 1000 to 10000 | > 10000 | 1000 to 10000 | < 100 | > 10000 | – | – | – | > 10000 | 100 to 1000
5 | COCCOc1ncc2c(N3CCNCC3)ccc(C(=O)Nc3cc(F)c4nc(C)cn4c3)c2n1 [Compound 180, N-{8-fluoro-2-methylimidazo[1,2-a]pyridin-6-yl}-2-(2-methoxyethoxy)-5-(piperazin-1-yl)quinazoline-8-carboxamide; trifluoroacetic acid] | – | – | – | – | – | – | > 10000 | > 10000 | > 10000 | – | –
6 | Cc1cn2cc(NC(=O)c3ccc(N4CCNCC4)c4ccnnc34)nc2c(C)n1 [Compound 121] | > 10000 | 100 to 1000 | > 10000 | 100 to 1000 | 100 to 1000 | > 10000 | – | – | – | > 10000 | 1000 to 10000

Second part, led by results:

Row | IC50 [1] [nM] | IC50 [2] [nM] | IC50 [3] [nM] | IC50 [4] [nM] | IC50 [5] [nM] | IC50 [6] [nM] | IC50 [7] [nM] | IC50 [8] [nM] | IC50 [9] [nM] | Compound | AC50 [1] [nM] | AC50 [2] [nM]
7 | 1000 to 10000 | 100 to 1000 | 1000 to 10000 | 100 to 1000 | < 100 | > 10000 | – | – | – | Cc1cn2cc(NC(=O)c3ccc(N4CC5(CN(C)C5)C4)c4ccnnc34)cc(F)c2n1 [Compound 132] | 1000 to 10000 | 100 to 1000
8 | 1000 to 10000 | < 100 | 1000 to 10000 | < 100 | < 100 | 1000 to 10000 | – | – | – | Cc1cn2cc(NC(=O)c3ccc(N4CCN[C@@H](C)C4)c4ccnnc34)cc(F)c2n1 [Compound 147] | 1000 to 10000 | < 100
9 | 1000 to 10000 | 1000 to 10000 | 1000 to 10000 | 1000 to 10000 | 1000 to 10000 | 1000 to 10000 | – | – | – | CNC1[C@@H]2C[C@H]1N(c1ccc(C(=O)Nc3cc(F)c4nc(C)cn4c3)c3nnccc13)C2 (stereo partly shown) [Compound 148] | 1000 to 10000 | 1000 to 10000
